Experimental data taken from patent US20150031674A1, “SERINE/THREONINE KINASE INHIBITORS” (GENENTECH, INC., priority 2013, published 2015).

The compounds below were run against human recombinant PAK1-KD protein (Homo sapiens, UniProt Q13153) (assay: PAK1-KD (Kinase Domain) IC50 Zlyte Assay (FRET peptide substrate phosphorylation)). Conditions: Z'-LYTE, Biological Example 1.
Chain of human recombinant PAK1-KD protein (Q13153 270-521 limits assumed): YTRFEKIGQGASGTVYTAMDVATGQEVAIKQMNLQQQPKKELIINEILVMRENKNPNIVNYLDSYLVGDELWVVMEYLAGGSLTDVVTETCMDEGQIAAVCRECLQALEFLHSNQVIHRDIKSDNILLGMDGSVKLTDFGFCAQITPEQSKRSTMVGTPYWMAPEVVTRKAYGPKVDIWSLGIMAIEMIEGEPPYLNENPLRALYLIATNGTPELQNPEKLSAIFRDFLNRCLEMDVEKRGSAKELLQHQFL
Source text: PAK1-KD (Kinase Domain) IC50 Zlyte Assay Protocol
Activity of human recombinant PAK1-KD protein may be assessed in vitro by assay of the phosphorylation of a FRET peptide substrate. Catalytically active human recombinant PAK1-KD protein is obtained by purification from Tini cells infected with a human PAK1-KD recombinant baculovirus expression vector.
The activity/inhibition of PAK1-KD was estimated by measuring the phosphorylation of a FRET peptide substrate (Ser/Thr19) labeled with Coumarin and Fluorescein using Z′-LYTE™ assay (Invitrogen). The peptide substrate is a consensus sequence ([sequence]) based on various PAK substrates reported in the scientific literature. […] Incubations were carried out at 22° C. in black polypropylene 384-well plates (Corning Costar).

Ki [nM]	Compound
14.7	CNc1ncc2cc(-c3ccc(-c4cccc(C)n4)cc3Cl)c(=O)n(CS(=O)(=O)N3CCNCC3)c2n1 [Example I-162, 6-[2-chloro-4-(6-methyl-2-pyridyl)phenyl]-2-(methylamino)-8-(piperazin-1-ylsulfonylmethyl)pyrido[2,3-d]pyrimidin-7-one]
0.92	CNc1ncc2cc(-c3ccc(-c4cccc(C)n4)cc3Cl)c(=O)n(CC[C@H]3OC[C@H](N)CO3)c2n1 [Example I-137, 8-[2-(5-amino-1,3-dioxan-2-yl)ethyl]-6-[2-chloro-4-(6-methyl-2-pyridyl)phenyl]-2-(methylamino)pyrido[2,3-d]pyrimidin-7-one]
26.9	Cc1cncc(-c2ccc(-c3cc4cnc(N)nc4n(C[C@H]4OC[C@H](N)CO4)c3=O)c(Cl)c2)n1 [Example I-163, 2-amino-8-[(5-amino-1,3-dioxan-2-yl)methyl]-6-[2-chloro-4-(6-methylpyrazin-2-yl)phenyl]pyrido[2,3-d]pyrimidin-7-one]
16	Cc1cccc(-c2ccc(-c3cc4cnc(NC(C)C)nc4n(CC(=O)N4CCNCC4)c3=O)c(C)c2)n1 [Example I-78, 2-(Isopropylamino)-6-(2-methyl-4-(6-methylpyridin-2-yl)phenyl)-8-(2-oxo-2-(piperazin-1-yl)ethyl)pyrido[2,3-d]pyrimidin-7(8H)-one]
0.9	CCNc1ncc2cc(-c3ccc(-c4cccc(C)n4)cc3Cl)c(=O)n(CCN3CCNCC3)c2n1 [Example I-66, 6-(2-Chloro-4-(6-methylpyridin-2-yl)phenyl)-2-(ethylamino)-8-(2-(piperazin-1-yl)ethyl)pyrido[2,3-d]pyrimidin-7(8H)-one]
19	CNc1ncc2cc(-c3ccc(-c4cncc(C)n4)cc3Cl)c(=O)n(CCC3CCNC3=O)c2n1 (single isomer, unassigned) [Example I-103, 6-[2-Chloro-4-(6-methylpyrazin-2-yl)phenyl]-2-(methylamino)-8-[2-(2-oxopyrrolidin-3-yl)ethyl]pyrido[2,3-d]pyrimidin-7-one]
136	CCNc1ncc2cc(-c3ccc(-c4cncc(C)n4)cc3Cl)c(=O)n(CCN3CCN(C4COC4)CC3)c2n1 [Example I-23, 6-(2-chloro-4-(6-methylpyrazin-2-yl)phenyl)-2-(ethylamino)-8-(2-(4-(oxetan-3-yl)piperazin-1-yl)ethyl)pyrido[2,3-d]pyrimidin-7(8H)-one]
44.9	CNc1ncc2cc(-c3ccc(-c4cncc(C)n4)cc3Cl)c(=O)n(CC(=O)N3CCC(O)C3)c2n1 (stereo not shown) [Example I-157, 6-[2-chloro-4-(6-methylpyrazin-2-yl)phenyl]-8-[2-(3-hydroxypyrrolidin-1-yl)-2-oxo-ethyl]-2-(methylamino)pyrido[2,3-d]pyrimidin-7-one]
59.2	CNc1ncc2cc(-c3ccc(-c4cncc(C)n4)cc3Cl)c(=O)n(CC(=O)N3CCNCC3)c2n1 [Example I-84, 6-(2-Chloro-4-(6-methylpyrazin-2-yl)phenyl)-2-(methylamino)-8-(2-oxo-2-(piperazin-1-yl)ethyl)pyrido[2,3-d]pyrimidin-7(8H)-one]
15.5	CCNc1ncc2cc(-c3ccc(-c4cccc(C)n4)cc3C)c(=O)n(CCCC(=O)NC)c2n1 [Example I-74, 4-[2-(Ethylamino)-6-[2-methyl-4-(6-methyl-2-pyridyl)phenyl]-7-oxo-pyrido[2,3-d]pyrimidin-8-yl]-N-methyl-butanamide]
0.654	Cc1cccc(-c2ccc(-c3cc4cnc(NC5COC5)nc4n(CC[C@H]4OC[C@@H](N)CO4)c3=O)c(Cl)c2)n1 [Example I-135, 8-[2-(5-amino-1,3-dioxan-2-yl)ethyl]-6-[2-chloro-4-(6-methyl-2-pyridyl)phenyl]-2-(oxetan-3-ylamino)pyrido[2,3-d]pyrimidin-7-one]
3.6	CNc1ncc2cc(-c3ccc(-c4cccc(C)n4)cc3C)c(=O)n(CCOCCN)c2n1 [Example I-97, 8-[2-(2-Aminoethoxy)ethyl]-2-(methylamino)-6-[2-methyl-4-(6-methyl-2-pyridyl)phenyl]pyrido[2,3-d]pyrimidin-7-one]
21.1	CNc1ncc2cc(-c3ccc(-c4cncc(C)n4)cc3Cl)c(=O)n(CC(=O)N3CC[C@@H](N)C3)c2n1 [Example I-152, 8-[2-[(3R)-3-Aminopyrrolidin-1-yl]-2-oxo-ethyl]-6-[2-chloro-4-(6-methylpyrazin-2-yl)phenyl]-2-(methylamino)pyrido[2,3-d]pyrimidin-7-one]
137	CCNc1ncc2cc(-c3ccc(-c4cncc(C)n4)cc3Cl)c(=O)n(CC(=O)N3CCOCC3)c2n1 [Example I-26, 6-[2-chloro-4-(6-methylpyrazin-2-yl)phenyl]-2-(ethylamino)-8-(2-morpholino-2-oxo-ethyl)pyrido[2,3-d]pyrimidin-7-one]
13.5	CNc1ncc2cc(-c3ccc(-c4cncc(C)n4)cc3Cl)c(=O)n(C[C@H]3OC[C@H](NC)CO3)c2n1 [Example I-178, 6-[2-Chloro-4-(6-methylpyrazin-2-yl)phenyl]-2-(methylamino)-8-[[5-(methylamino)-1,3-dioxan-2-yl]methyl]pyrido[2,3-d]pyrimidin-7-one]
16.7	CNc1ncc2cc(-c3ccc(-c4cccc(C)n4)cc3C)c(=O)n(CCN3CCOCC3)c2n1 [Example I-165, 2-(Methylamino)-6-[2-methyl-4-(6-methyl-2-pyridyl)phenyl]-8-(2-morpholinoethyl)pyrido[2,3-d]pyrimidin-7-one]
9.9	Cc1cncc(-c2ccc(-c3cc4cnc(NC5COC5)nc4n(C[C@H]4OC[C@H](N)CO4)c3=O)c(Cl)c2)n1 [Example I-164, 8-[(5-amino-1,3-dioxan-2-yl)methyl]-6-[2-chloro-4-(6-methylpyrazin-2-yl)phenyl]-2-(oxetan-3-ylamino)pyrido[2,3-d]pyrimidin-7-one]
14.4	CNc1ncc2cc(-c3ccc(-c4cncc(C)n4)cc3Cl)c(=O)n(CC(=O)NCCN)c2n1 [Example I-156, N-(2-aminoethyl)-2-[6-[2-chloro-4-(6-methylpyrazin-2-yl)phenyl]-2-(methylamino)-7-oxo-pyrido[2,3-d]pyrimidin-8-yl]acetamide]
12.4	CNc1ncc2cc(-c3ccc(-c4cncc(C)n4)cc3Cl)c(=O)n(CC(=O)N[C@@H]3CCNC3)c2n1 [Example I-151, 2-[6-[2-Chloro-4-(6-methylpyrazin-2-yl)phenyl]-2-(methylamino)-7-oxo-pyrido[2,3-d]pyrimidin-8-yl]-N-[(3R)-pyrrolidin-3-yl]acetamide]
5.3	CNc1ncc2cc(-c3ccc(-c4cccc(C)n4)cc3C)c(=O)n(C[C@H]3OC[C@H](N)CO3)c2n1 [Example I-170, 8-[(5-Amino-1,3-dioxan-2-yl)methyl]-2-(methylamino)-6-[2-methyl-4-(6-methyl-2-pyridyl)phenyl]pyrido[2,3-d]pyrimidin-7-one]
4.7	CNc1ncc2cc(-c3ccc(-c4cccc(C)n4)cc3Cl)c(=O)n(CCC3CNCCO3)c2n1 (single isomer, unassigned) [Example I-125, 6-(2-chloro-4-(6-methylpyridin-2-yl)phenyl)-2-(methylamino)-8-(2-(morpholin-2-yl)ethyl)pyrido[2,3-d]pyrimidin-7(8H)-one]
39.4	CNc1ncc2cc(-c3ccc(-c4cncc(C)n4)cc3Cl)c(=O)n(CC(=O)N3CCC[C@H]3CN)c2n1 [Example I-154, 8-[2-[(2S)-2-(Aminomethyl)pyrrolidin-1-yl]-2-oxo-ethyl]-6-[2-chloro-4-(6-methylpyrazin-2-yl)phenyl]-2-(methylamino)pyrido[2,3-d]pyrimidin-7-one]
7.08	CCNc1ncc2cc(-c3ccc(-c4cccc(C)n4)cc3Cl)c(=O)n(CC[C@H](O)CO)c2n1 [Example I-123, 6-[2-Chloro-4-(6-methyl-2-pyridyl)phenyl]-8-[(3S)-3,4-dihydroxybutyl]-2-(ethylamino)pyrido[2,3-d]pyrimidin-7-one]
0.9	Cc1cccc(-c2ccc(-c3cc4cnc(NC5COC5)nc4n(CC[C@H]4OC[C@@H](N)CO4)c3=O)c(Cl)c2)n1 [Example I-133]
13.2	CCNc1ncc2cc(-c3ccc(-c4cncc(C)n4)cc3Cl)c(=O)n(CCOC3CCNC3)c2n1 (single isomer, unassigned) [Example I-51]
0.3	Cc1cccc(-c2ccc(-c3cc4cnc(NC5COC5)nc4n(CCOCCN)c3=O)c(Cl)c2)n1 [Example I-63, 8-[2-(2-Aminoethoxy)ethyl]-6-[2-chloro-4-(6-methyl-2-pyridyl)phenyl]-2-(oxetan-3-ylamino)pyrido[2,3-d]pyrimidin-7-one]
8.54	CNc1ncc2cc(-c3ccc(-c4cncc(C)n4)cc3Cl)c(=O)n(C[C@H]3OC[C@H](N)CO3)c2n1 [Example I-145, 8-[(5-Amino-1,3-dioxan-2-yl)methyl]-6-[2-chloro-4-(6-methylpyrazin-2-yl)phenyl]-2-(methylamino)pyrido[2,3-d]pyrimidin-7-one]
38.1	CNc1ncc2cc(-c3ccc(-c4cncc(C)n4)cc3Cl)c(=O)n(CCC3CCNC3=O)c2n1 (single isomer, unassigned) [Example I-102, 6-[2-Chloro-4-(6-methylpyrazin-2-yl)phenyl]-2-(methylamino)-8-[2-(2-oxopyrrolidin-3-yl)ethyl]pyrido[2,3-d]pyrimidin-7-one]
6.82	CNc1ncc2cc(-c3ccc(-c4cncc(C)n4)cc3Cl)c(=O)n(CC[C@H]3OC[C@H](N)CO3)c2n1 [Example I-177, 8-[2-(5-amino-1,3-dioxan-2-yl)ethyl]-6-[2-chloro-4-(6-methylpyrazin-2-yl)phenyl]-2-(methylamino)pyrido[2,3-d]pyrimidin-7-one]
1.5	CNc1ncc2cc(-c3ccc(-c4cccc(C)n4)cc3Cl)c(=O)n(CCC3CNCCO3)c2n1 (single isomer, unassigned) [Example I-124, 6-(2-Chloro-4-(6-methylpyridin-2-yl)phenyl)-2-(methylamino)-8-(2-(morpholin-2-yl)ethyl)pyrido[2,3-d]pyrimidin-7(8H)-one]

Compound	Ki [nM]
CCNc1ncc2cc(-c3ccc(-c4cncc(C)n4)cc3Cl)c(=O)n(CCOC3CC(N)C3)c2n1 (stereo not shown) [Example I-117, 8-(2-(3-Aminocyclobutoxy)ethyl)-6-(2-chloro-4-(6-methylpyrazin-2-yl)phenyl)-2-(ethylamino)-pyrido[2,3-d]pyrimidin-7(8H)-one]	3.7
